Consider eight compounds from US20240252596A1, “Injectable Polymeric Biopharmaceutical Formulations” (The Board of Trustees of the Leland Stanford Junior …, priority 2023, published 2024).

A short description of data set [1]: Syringe force measurements of liquid carriers alone after 48 h. The class given is physicochemical. Conditions: media alone in syringe, after 48 h at ambient temperature. The method, then:
To investigate the syringe force profile for various liquid carriers in syringes (e.g., break loose (initiating) force, and the glide (sustaining) force), the following media alone were loaded into syringes in duplicate (n=2): • 1. triacetin (100%) • 2. benzyl benzoate (100%) • 3. Miglyol 810 (100%) • 4. Miglyol 840 (100%) • 5. benzyl alcohol (100%) • 6. ethyl oleate (100%).
The above syringes were stored for 48 h at ambient temperature, protected from light.
Syringe force measurements (n=2) were conducted on each media after 48 h.

A short description of data set [2]: Liquid carrier studies: suspension performance of BSA/MoNi (5%) microparticles at 460 mg/mL. Conditions: for Suspension Performance: BSA/MoNi (5%) microparticles dispersed at 460 mg/mL in the media; for Additional comments (consistency on dispersion, stability of suspension): BSA/MoNi (5%) microparticles dispersed in the media; for time until suspension hardens: sealed in a glass container with parafilm.
Procedure: (§1) To investigate the liquid carrier component of the subject compositions, a number of solvents were tested for their suspension performance characteristics.

A short description of data set [3]: Syringe force measurements of liquid carriers alone after 48 h. The data set is classed as physicochemical. To be noted: vehicle.
Data set [4] can be described thus: Parameters of liquid carriers (density, viscosity, vapor pressure). Conditions: liquid carrier.
Procedure: as §1
Another data set deals with SKH1-E mice. Put plainly: Tolerability screen: subcutaneous injection of solvent or solvent blend, adverse skin reaction. The class given is in vivo. To be noted: 10 uL s.c. The method, then:
SKH1-E mice were subcutaneously administered 10 μL of solvent or solvent blend with triacetin (no protein). […] Volume of solvent injected was 2× the solvent volume that would be administered to a mouse in a paste.
Degree of adverse skin reaction was quantified using the grading scale of Table 5: […]

Regarding `OCc1ccccc1` [Benzyl Alcohol (BA), Benzyl Alcohol], in data set [1], the “Break loose (N), n = 2” value is listed as 4.8 N and the “Glide force (N), n = 2” value turned out to be 2.5 N. In data set [2], the “Suspension Performance” value was “+” and the “Additional comments (consistency on dispersion, stability of suspension)” value (from here on “Additional comments”) is reported as “Forms very low viscosity”. Moreover, in data set [3], the “Viscosity (cp)*” value is given as 5 cp. Besides, in data set [4], the Density turned out to be 1.04 g/mL, the Vapor pressure amounted to 12 Pa and the “Viscosity (@25 C.)” value was determined as 5.4.

Regarding `CCO` [Ethyl alcohol], the “Additional comments” value in data set [2] is “Clumps immediately, cannot”. In data set [4], the Density came to 0.79 g/mL and the “Viscosity (@25 C.)” value was 1.07.

Turning to `CC(O)CO` (stereo not drawn) [Propylene glycol (PG), Propylene glycol], in data set [2], the “Additional comments” value was “quickly hardens into a sticky” and the “time until suspension hardens” value is “rock (within a couple hours”. For the same compound, in data set [4], the Density is 1.03 g/mL, the Vapor pressure was found to be 11 Pa and the “Viscosity (@25 C.)” value is 48.6.

With `CN1CCCC1=O` [N-methyl-2-pyrrolidone (NMP), N-methyl-2-pyrrolidone], in data set [2], the “Suspension Performance” value was “+/−” and the “Additional comments” value is listed as “Forms very low viscosity”. Besides, in data set [4], the Density was found to be 1.03 g/mL, the Vapor pressure came out at 45 Pa and the “Viscosity (@25 C.)” value came to 1.89.

On to `C[S+](C)[O-]` [Dimethyl sulfoxide (DMSO), Dimethyl sulfoxide], for which, in data set [2], the “Additional comments” value was “quickly hardens into a flaky” and the “time until suspension hardens” value is given as “paste (within 1 hour when sealed”. In addition, in data set [4], the Density worked out at 1.09 g/mL, the Vapor pressure is 80 Pa and the “Viscosity (@25 C.)” value is 2.0.

Turning to `CCCCCCCC/C=C\CCCCCCCC(=O)OCC` [ethyl oleate], in data set [1], the “Break loose (N), n = 2” value is recorded as 4.2 N and the “Glide force (N), n = 2” value was 3.2 N. The “Viscosity (cp)*” value in data set [3] was determined as 6 cp.

`O=C(OCc1ccccc1)c1ccccc1` [Benzyl benzoate]: in data set [1], the “Break loose (N), n = 2” value was found to be 5.7 N and the “Glide force (N), n = 2” value is on record as 3.5 N. In addition, in data set [2], the “Suspension Performance” value was “+” and the “Additional comments” value is “Forms a low viscosity solution”. Further, the “Viscosity (cp)*” value in data set [3] is 8-9 cp. For the same compound, in data set [4], the Density stood at 1.11 g/mL and the “Viscosity (@25 C.)” value amounted to 8.29.

In the case of `CC(=O)OCC(COC(C)=O)OC(C)=O` [Triacetin], in data set [1], the “Break loose (N), n = 2” value amounted to 8.1 N and the “Glide force (N), n = 2” value was 6.1 N. Further, in data set [2], the “Suspension Performance” value is “++” and the “Additional comments” value was “A very good non-solvent. Shows”. Besides, the “skin reaction” value in the data set with SKH1-E mice is given as “no skin swelling or redness”. In addition, the “Viscosity (cp)*” value in data set [3] came to 23 cp. Also, in data set [4], the Density was 1.16 g/mL, the Vapor pressure was found to be 0.267 Pa and the “Viscosity (@25 C.)” value came out at 23.
